Patent US20220289794A1, “SYNTHETIC ANTIMICROBIAL PEPTIDES” (priority 2019, published 2022)
≈ marks a conversion by molar mass, not a printed value. Positions of bridges follow the written chain, without caps; N, C: chain ends. Residues, ends and D or L forms follow the SMILES beside them.

Tests used:
[1] = tested on: Escherichia coli (ATCC 25922); type: cell-based
Method: (§1) All bacteria pathogens tested clinically reported multi-drug resistant strains. The antibacterial activity was tested against Gram-negative strains namely; Pseudomonas aeruginosa (PSA), Klebsiella pneumoniae (KPC), Escherichia coli (E. coli) and Gram-positive Methicillin-resistant Staphylococcus aureus (MRSA). The minimum inhibitory concentration (MIC) is the lowest concentration of the antibiotic that inhibits microbial growths. MIC is determined by visual inspection or use of spectrophotometer plate reader to determine media turbidity. On the other hand, the minimum bactericidal concentration (MBC) is the lowest concentration that kills […] of bacterial growth. Cytotoxicity of peptides in the hepatic cell line, human skin fibroblast cell line, heart/myocardium cells, and human lung fibroblast cells is shown in FIGS. 36-46). […] (IFX-315)-Au-NP with antibiotics are shown in FIGS. 49-58 when the gold nanoparticles are formed by the peptide followed by addition of the antibiotic. […] (IFX-301) with antibiotics (1:1 ratio) first and then used in the synthesis of Au-NP in antibacterial activities is shown in FIGS. 59-68.
(§2) The MBC is identified by determining the lowest concentration of antibacterial agent that reduces the viability (concentration of peptides necessary to achieve a bactericidal effect) of the initial bacterial inoculum by ≥99.9%.

[2] = tested on: Klebsiella pneumoniae (ATCC BAA-1705); type: cell-based
Method: as §1, §2

[3] = tested on: Methicillin-resistant Staphylococcus aureus MRSA (ATCC BAA-1556); type: cell-based
Method: as §1, §2

[4] = tested on: Pseudomonas aeruginosa (ATCC 27883); type: cell-based; conditions: ATCC 27883
Method: as §1, §2

[5] = tested on: Methicillin-resistant Staphylococcus aureus MRSA (ATCC BAA-1556); conditions: ATCC BAA-1556
[6] = tested on: Pseudomonas aeruginosa (ATCC 27883); conditions: ATCC 27883
[7] = tested on: Escherichia coli (ATCC 25922); conditions: ATCC 25922
[8] = tested on: Klebsiella pneumoniae (ATCC BAA-1705); conditions: ATCC BAA-1705
[9] = tested on: KPC
[10] = tested on: PSA
[11] = tested on: E. coli
[12] = tested on: Pseudomonas aeruginosa (ATCC 10145); conditions: ATCC 10145
[13] = type: cell-based; conditions: Escherichia coli (ATCC 25922)

| MRSA (ATCC BAA-1556) MIC [5] | PSA (ATCC 27883 MIC) [6] | E. coli (ATCC 25922) MIC [7] | KPC (ATCC BAA-1705) MIC [8] | MIC [9] | MIC [10] | MIC [11] | MIC [12] | Compound | E. coli (ATCC 25922) MBC [1] | KPC (ATCC BAA-1705) MBC [2] | MRSA (ATCC BAA-1556) MBC [3] | PSA (ATCC 27883) MBC [4] | MIC, MgCl2 ([13]; MH broth + 1 mM MgCl2) | MIC, CaCl2 ([13]; MH broth + 2 mM CaCl2) | MIC, NH4Cl ([13]; MH broth + 6 mM NH4Cl) | MIC, NaCl ([13]; MH broth + 150 mM NaCl) | MIC, FBS ([13]; MH broth + FBS (25%)) | MIC, KCl ([13]; MH broth + […] KCl) | MIC, MH Media ([13]; MH broth, no supplement) |
| --- | --- | --- | --- | --- | --- | --- | --- | --- | --- | --- | --- | --- | --- | --- | --- | --- | --- | --- | --- |
|  |  |  |  | 64 µg/mL (≈ 38.1 µM) | 16 µg/mL (≈ 9.51 µM) | 32 µg/mL (≈ 19 µM) | 32 µg/mL (≈ 19 µM) | N=C(N)NCCC[C@@H]1NC(=O)[C@H](CCCNC(=N)N)NC(=O)[C@H](CCCNC(=N)N)NC(=O)[C@H](CCCNC(=N)N)NC(=O)[C@H](Cc2c[nH]c3ccccc23)NC(=O)[C@H](Cc2c[nH]c3ccccc23)NC(=O)[C@H](Cc2c[nH]c3ccccc23)NC(=O)[C@H](Cc2c[nH]c3ccccc23)NC(=O)[C@H](CCCNC(=N)N)NC(=O)[C@H](CCCNC(=N)N)NC1=O [[R6W4] IFX-301] (cyclo(RRRRRRWWWW)) |  |  |  |  |  |  |  |  |  |  |  |
| 64 µg/mL | 512 µg/mL | 256 µg/mL | 16 µg/mL |  |  |  |  | N=C(N)NCCC[C@H](NC(=O)[C@H](CCCNC(=N)N)NC(=O)[C@H](CCCNC(=N)N)NC(=O)[C@H](CCCNC(=N)N)NC(=O)[C@@H](N)CS)C(=O)N[C@@H](Cc1c[nH]c2ccccc12)C(=O)N[C@@H](Cc1c[nH]c2ccccc12)C(=O)N[C@@H](Cc1c[nH]c2ccccc12)C(=O)N[C@@H](Cc1c[nH]c2ccccc12)C(=O)N[C@@H](CS)C(=O)O [IFX-328] (H-CRRRRWWWWC-OH) | 512 µg/mL | 32 µg/mL | 128 µg/mL | 512 µg/mL |  |  |  |  |  |  |  |
| 16 µg/mL | 128 µg/mL | 32 µg/mL | 64 µg/mL |  |  |  |  | N=C(N)NCCC[C@H](NC(=O)[C@H](CCCNC(=N)N)NC(=O)[C@H](CCCNC(=N)N)NC(=O)[C@@H](N)CCCNC(=N)N)C(=O)N[C@@H](CS)C(=O)N[C@@H](Cc1c[nH]c2ccccc12)C(=O)N[C@@H](Cc1c[nH]c2ccccc12)C(=O)N[C@@H](Cc1c[nH]c2ccccc12)C(=O)N[C@@H](Cc1c[nH]c2ccccc12)C(=O)N[C@@H](CS)C(=O)O [IFX-331] (H-RRRRCWWWWC-OH) | 32 µg/mL | 128 µg/mL | 32 µg/mL | 265 µg/mL |  |  |  |  |  |  |  |
| 16 µg/mL | 128 µg/mL | 16 µg/mL | 32 µg/mL |  |  |  |  | N=C(N)NCCC[C@H](NC(=O)[C@H](CCCNC(=N)N)NC(=O)[C@H](CCCNC(=N)N)NC(=O)[C@@H](N)CCCNC(=N)N)C(=O)N[C@H]1CSSC[C@@H](C(=O)O)NC(=O)[C@H](Cc2c[nH]c3ccccc23)NC(=O)[C@H](Cc2c[nH]c3ccccc23)NC(=O)[C@H](Cc2c[nH]c3ccccc23)NC(=O)[C@H](Cc2c[nH]c3ccccc23)NC1=O [IFX-333] (H-RRRRCWWWWC-OH; disulfide 5-10) | 32 µg/mL | 64 µg/mL | 32 µg/mL | 128 µg/mL |  |  |  |  |  |  |  |

The remaining lines, values behind:

| Compound | MRSA (ATCC BAA-1556) MIC [5] | PSA (ATCC 27883 MIC) [6] | E. coli (ATCC 25922) MIC [7] | KPC (ATCC BAA-1705) MIC [8] | MIC [9] | MIC [10] | MIC [11] | MIC [12] | E. coli (ATCC 25922) MBC [1] | KPC (ATCC BAA-1705) MBC [2] | MRSA (ATCC BAA-1556) MBC [3] | PSA (ATCC 27883) MBC [4] | MIC, MgCl2 ([13]; MH broth + 1 mM MgCl2) | MIC, CaCl2 ([13]; MH broth + 2 mM CaCl2) | MIC, NH4Cl ([13]; MH broth + 6 mM NH4Cl) | MIC, NaCl ([13]; MH broth + 150 mM NaCl) | MIC, FBS ([13]; MH broth + FBS (25%)) | MIC, KCl ([13]; MH broth + […] KCl) | MIC, MH Media ([13]; MH broth, no supplement) |
| --- | --- | --- | --- | --- | --- | --- | --- | --- | --- | --- | --- | --- | --- | --- | --- | --- | --- | --- | --- |
| N=C(N)NCCC[C@@H]1NC(=O)[C@H](CS)NC(=O)[C@H](Cc2c[nH]c3ccccc23)NC(=O)[C@H](Cc2c[nH]c3ccccc23)NC(=O)[C@H](Cc2c[nH]c3ccccc23)NC(=O)[C@H](Cc2c[nH]c3ccccc23)NC(=O)[C@H](CS)NC(=O)[C@H](CCCNC(=N)N)NC(=O)[C@H](CCCNC(=N)N)NC(=O)[C@H](CCCNC(=N)N)NC1=O [IFX-329] (cyclo(RRRCWWWWCR)) | 8 µg/mL | 128 µg/mL | 32 µg/mL | 32 µg/mL |  |  |  |  | 64 µg/mL | 32 µg/mL | 32 µg/mL | 128 µg/mL |  |  |  |  |  |  |  |
| N=C(N)NCCC[C@@H]1NC(=O)[C@H](CCCNC(=N)N)NC(=O)[C@H](CCCNC(=N)N)NC(=O)[C@@H]2CSSC[C@H](NC(=O)[C@H](CCCNC(=N)N)NC1=O)C(=O)N[C@@H](Cc1c[nH]c3ccccc13)C(=O)N[C@@H](Cc1c[nH]c3ccccc13)C(=O)N[C@@H](Cc1c[nH]c3ccccc13)C(=O)N[C@@H](Cc1c[nH]c3ccccc13)C(=O)N2 [IFX-330] (cyclo(RRRCWWWWCR); disulfide 4-9) | 8 µg/mL | 128 µg/mL | 32 µg/mL | 32 µg/mL |  |  |  |  | 64 µg/mL | 128 µg/mL | 32 µg/mL | 256 µg/mL |  |  |  |  |  |  |  |
| Polymyxin B |  |  |  |  |  |  |  |  |  |  |  |  | 1.5 µg/mL | 0.7 µg/mL | 0.7 µg/mL | 0.7 µg/mL | 0.7 µg/mL | 0.7 µg/mL | 0.7 µg/mL |
| N=C(N)NCCC[C@@H]1NC(=O)[C@H](CCCNC(=N)N)NC(=O)[C@H](CCCNC(=N)N)NC(=O)[C@H](CCCNC(=N)N)NC(=O)[C@@H](N)CSSC[C@@H](C(=O)O)NC(=O)[C@H](Cc2c[nH]c3ccccc23)NC(=O)[C@H](Cc2c[nH]c3ccccc23)NC(=O)[C@H](Cc2c[nH]c3ccccc23)NC(=O)[C@H](Cc2c[nH]c3ccccc23)NC1=O [IFX-327] (H-CRRRRWWWWC-OH; disulfide 1-10) | 32 µg/mL | 512 µg/mL | 256 µg/mL | 256 µg/mL |  |  |  |  | 512 µg/mL | 512 µg/mL | 64 µg/mL | 512 µg/mL |  |  |  |  |  |  |  |
